We go through 93 compounds from ChEMBL document CHEMBL3137356, “MMV Box Cryptosporidium parvum screening set”.

SMILES strings stand for the structures.

A word on the Inhibition: it is the relative decrease from the control value, in per cent.

This assay concerns Cryptosporidium parvum. The assay is described as follows: MMV: Cryptosporidium parvum oocysts (Iowa Strain) were prepared for use by treatment with 10 mM HCl (37 degrees C, 10 min) followed by 2 mM sodium taurocholate in phosphate-buffered saline (PBS) with Ca2+ and Mg2+ (16 degrees C, 10 min) in order to stimulate excystation. The high-throughput screen was carried out by inoculating >90% confluent human ileocecal adenocarcinoma (HCT-8) cells (ATCC) with ~5.5 x 10^3 primed oocysts per well. Experimental compounds or DMSO (vehicle) were added three hours after infection, and cells were incubated for 48 hours. The assay is classed as functional.
`COc1ccc2c(c1)C1(Nc3ccccc3-c3nc4ccccc4n31)C(=O)N2` (stereo not drawn): the Inhibition is given as -27.19%. As for `COc1cccc(Cn2c(Oc3ccccc3)nc3c2c(=O)n(C)c(=O)n3C)c1`, the Inhibition is recorded as -39.36%.

As for `CCOc1c(Cl)cc(CNCC(O)c2ccccc2)cc1OC` (stereo not drawn), the Inhibition is -11.22%.

As to `OC(CNCC1CCCO1)Cn1c2ccc(Cl)cc2c2cc(Cl)ccc21` (stereo not drawn), the Inhibition is -33.95%.

Consider `COc1ccc2nc(C)cc(Nc3ccccc3O)c2c1`, for which the Inhibition is reported as -4.901%.

With `CCn1nc(-c2ccc(C(=O)OC)cc2)nc2c(=O)n(C)c(=O)nc1-2`, the Inhibition is reported as -16.23%. Regarding `CCOc1ccccc1CN1CCc2nc3cc(C(C)(C)C)nn3c(O)c2C1`, the Inhibition is recorded as -3.69%.

Consider `Cc1cc(N2CCCC2)nc(Nc2ccc(NC(=O)CCc3ccccc3)cc2)n1`, for which the Inhibition was 13.46%. On to `CN1CCN(c2ncnc3c2[nH]c2ccc(Cl)cc23)CC1`, for which the Inhibition is on record as -51.61%. Consider `CC1(c2ccccc2)Nc2ccccc2-c2nc3ccccc3n21` (stereo not drawn), for which the Inhibition was 30.85%. Turning to `COc1cccc(C2(C)Nc3ccccc3-c3nc4ccccc4n32)c1` (stereo not drawn), the Inhibition is -28.25%. In the case of `CC(C)CNC(=O)c1c(N)n(CCc2ccccc2F)c2nc3ccccc3nc12`, the Inhibition is given as -31.92%. The result for `CC(C)(C)CC(C)(C)NCC(O)COc1ccc(Cl)cc1Cl` (stereo not drawn) reads 15.77%; that for `O=C1c2ccccc2-c2nnc(-c3ccc(Br)cc3)cc21`, -13.35%; that for `O=C(Nc1ccc(Br)cc1)Nc1cccc(Cl)c1`, -51.26%. Take `CN(C)CCNc1cc(-c2ccccc2)nc2ccccc12`: the Inhibition is -2.54%. The figure for `CCOC(=O)C1=C(C)N=c2sc(=Cc3cc(Cl)ccc3O)c(=O)n2C1c1ccc(OC)cc1` (stereo not drawn) is -31.98%; for `Cc1nc2ccccc2c(O)c1CC=C(Cl)Cl` it is -7.486%. The result for `FC(F)(F)c1cccc(Nc2nc3ccccc3nc2Nc2cccc(C(F)(F)F)c2)c1` reads -14.38%; that for `COc1ccc2nc(C)cc(Nc3ccc(Cl)cc3)c2c1`, -41.72%. In the case of `CCC(O)c1ccc(Br)cc1NC(=O)c1cccc(Cl)c1` (stereo not drawn), the Inhibition worked out at 15.79%. The figure for `COc1ccc2nc(C)cc(Nc3cccc(O)c3)c2c1.Cl` is -14.76%; for `CN(C)CCCNCc1ccc(-c2ccc(F)c(Cl)c2)o1.Cl` it is -9.329%; for `O=c1nc(C=Cc2ccc(Br)cc2)oc2ccccc12` it is 36.68%. The result for `COc1ccc2nc(N)nc(C)c2c1` reads 15.73%; that for `CC(=O)c1ccc(NC(=O)CSc2nc(-c3ccccc3Cl)ns2)cc1`, 23.33%. The figure for `Cc1sc2ncnc(Sc3nc4ccccc4[nH]3)c2c1C` is 20.44%; for `COc1ccc(C(=O)NC(c2ccc(Cl)cc2Cl)c2cc(Cl)c3cccnc3c2O)cc1` (stereo not drawn) it is 66.57%; for `CCC(=O)Nc1nnc(Cc2ccc(OC)c(OC)c2)s1` it is 5.406%. Regarding `O=C(NCCCN1CCC(N2CCCCC2)CC1)C1=Cc2cc(Br)ccc2OC1`, the Inhibition is given as -11.72%. The figure for `Cc1ccnc(NC(c2cccc(OCc3ccccc3)c2)c2ccc3cccnc3c2O)c1` (stereo not drawn) is 80.24%; for `CC(=O)Nc1nnc(SCc2c(C)cc(C(C)(C)C)cc2C)s1` it is -2.709%.

As to `O=C(Nc1ccc(CN2CCOCC2)cc1)c1ccc(-c2cc(Cl)ccc2Cl)o1`, the Inhibition came to 9.568%. Consider `Cc1cc(Nc2cccc(F)c2)nc(NCc2ccccc2)n1`, for which the Inhibition was -34.09%.

For the compound `Cc1ccc(OCCCCCCNCCO)c(C)c1`, the Inhibition is listed as -13.88%. Regarding `COc1cccc(C(=O)Nc2ccc(-c3nc4ccccc4[nH]3)cc2)c1`, the Inhibition is -26.13%.

For the compound `COCCn1c(C)nc2ccccc2c1=O`, the Inhibition is on record as -17.93%. Regarding `O=C(Nc1cccc(-c2nc3ccccc3[nH]2)c1)c1cccc(NC(=O)c2ccco2)c1`, the Inhibition is listed as 23.53%.

Regarding `O=C(NC1CCN(Cc2ccccc2)CC1)c1cc(-c2cccnc2)nc2ccc(Cl)cc12`, the Inhibition is -40.68%. The figure for `CCN(Cc1ccccc1)C1CCN(Cc2cc(Br)ccc2O)CC1.O=C(O)C(=O)O` is -6.655%; for `CC(C)CCNCC(O)Cn1c2ccccc2c2ccccc21.Cl` (stereo not drawn) it is 46.75%.

For the compound `CCOC(=O)c1cnc2ccc(Cl)cc2c1NCCCN(C)C`, the Inhibition was found to be 28.81%. `CCOc1ccccc1NC(=O)CN1CCN(C(=O)c2ccco2)CC1`: the Inhibition was -43.69%.

For `O=C(Nc1ccc(C23CC4CC(CC(c5ccccc5)(C4)C2)C3)cc1)c1cccs1`, the Inhibition was -2.299%.

On to `O=C1c2ccccc2C2=Nc3ccccc3SC(c3cccc(F)c3)C12` (stereo not drawn), for which the Inhibition is given as -5.793%. In the case of `Cc1ccccc1OCCSc1nc2ccc(NC(=O)c3ccccc3)cc2s1`, the Inhibition came to 17.58%. The figure for `COc1ccc(-c2nonc2NC(=O)c2cccc(Cl)c2)cc1OC` is 23.52%; for `Cc1cc(NC(=O)c2ccc(-c3ccccc3)cc2)no1` it is 13.55%. The figure for `CCOc1cc2c(cc1OCC)C(c1cc(C)c(O)c(C)c1)NCC2.Cl` (stereo not drawn) is 13.77%. The figure for `O=C1CC(O)(C(F)(F)C(F)(F)F)Oc2ccccc21` (stereo not drawn) is 26.51%; for `COc1cc(SC)ccc1C(=O)N1CCCC(C)C1` (stereo not drawn) it is -12.18%; for `CC(C)c1ccc(CNCC(O)c2ccccc2)cc1.Cl` (stereo not drawn) it is 13.18%. For `CC(C)(C)c1ccc(C(=O)Nc2c3c(nn2-c2cccc(Cl)c2)CSC3)cc1`, the Inhibition is recorded as 7.325%.

Take `CCOc1cc2c(cc1OCC)C(c1cc(Cl)c(O)c(OCC)c1)NCC2` (stereo not drawn): the Inhibition is on record as -10.58%. Turning to `COc1ccc(N2CCN(C(CNC(=O)CC(C)(C)C)c3ccc4c(c3)OCO4)CC2)cc1` (stereo not drawn), the Inhibition is listed as -20.28%. Consider `CCCCCCn1c(=N)n(CC(O)COc2cccc(C)c2)c2ccccc21.Cl` (stereo not drawn), for which the Inhibition was determined as 6.838%.

On to `Cc1ccc(NC(=O)Nc2cccc(Cl)c2)cc1F`, for which the Inhibition was -0.4391%. The result for `O=C(O)C(=O)O.Oc1ccc(Br)cc1CN1CCN(Cc2cccc(F)c2)CC1` reads -34.58%.

As for `CCOC(=O)C1(Cc2ccccc2)CCN(Cc2cccc(OC)c2O)CC1`, the Inhibition was -29.57%.

`Oc1ccc(C(=C(Cl)Cl)c2ccc(O)cc2)cc1`: the Inhibition was -24.26%. The result for `CC(C)(C)c1ccc2c(c1)CN(Cc1ccc(Cl)cc1)CO2` reads -0.2226%; that for `CCCCC(O)(c1ccc(Cl)cc1)C(CN1CCOCC1)c1ccc(Cl)cc1.Cl` (stereo not drawn), 17.88%.

For `O=c1nc(C=Cc2ccc(Cl)cc2)oc2ccccc12`, the Inhibition is given as 84.37%. The figure for `O=C(NCc1ccco1)C1CCN(S(=O)(=O)c2ccc(Br)cc2)CC1` is 29.65%; for `CN(C)c1ccc(N2C(N)=NC(N)=NC2(C)C)cc1` it is -33.57%; for `COc1ccc(Nc2nc(NCc3ccccc3)c3ccccc3n2)cc1` it is 49.98%. Consider `COc1ccc(OC)c(C2C3=C(CC(C)(C)CC3=O)N(c3ccc(Cl)c(Cl)c3)C3=C2C(=O)CC(C)(C)C3)c1`, for which the Inhibition was determined as 2.896%. The result for `Cc1cc(=O)oc2c1ccc1oc(C(=O)c3ccccc3)c(C)c12` reads 64.86%; that for `COc1ccc(CN2CCN(Cc3ccccc3)CC2)c(O)c1`, -9.592%. `COc1cc2c(cc1OC)C1=NNC(=O)C1=NC(C)(C)C2`: the Inhibition is listed as -25.43%. Turning to `COc1ccc2c(c1OC)C(=O)N1c3ccccc3N=C(c3ccc(C)cc3)CC21` (stereo not drawn), the Inhibition is recorded as -57.7%. The result for `Oc1c(CN2CCN(c3ccccc3F)CC2)cc(Br)c2cccnc12` reads 61.72%. With `CCCCCCc1cc(O)c2c3c(c(=O)oc2c1)CCC(C)C3` (stereo not drawn), the Inhibition is reported as -17.49%.

For `Cl.OC(CNCc1ccccc1)Cn1c2ccccc2c2ccccc21` (stereo not drawn), the Inhibition was -37.25%. In the case of `Oc1c2c(nc3cc(-c4ccccc4)nn13)CCCC2`, the Inhibition worked out at 37.02%. In the case of `CC1=C(CC(=O)c2cccc([N+](=O)[O-])c2)C(=O)c2ccccc2C1=O`, the Inhibition is reported as -15.31%. The result for `CCCCc1c(C)nc2c(OC)cccc2c1O` reads -24.29%; that for `OC1CCCCC1C1(NC(=S)Nc2ccccc2)CCCCC1` (stereo not drawn), 3.232%; that for `OC1=C2C(=Nc3ccccc3SC2c2ccc(Br)cc2)c2ccccc21` (stereo not drawn), 2.929%.

`COc1ccc(C)c2sc(N(Cc3cccnc3)C(=O)c3ccc(C#N)cc3)nc12`: the Inhibition is -2.161%. In the case of `Clc1ccc2c(N3CCCC3)ccnc2c1`, the Inhibition was -28.37%. The figure for `CCOC(=O)C1CCN(C(=O)CN2C(=O)c3ccccc3C2c2c[nH]c3ccccc23)CC1` (stereo not drawn) is 23.12%.

For the compound `CCOc1ccc(CCNC(=O)c2cccs2)cc1OCC`, the Inhibition stood at 10.2%. The figure for `COc1ccc(C(=O)C2CC2c2ccc(Cl)cc2)cc1` (stereo not drawn) is -36.26%. The result for `Cc1cc(N2CCN(C3CCCC3)CC2)n2c(nc3ccccc32)c1C#N` reads -41.28%; that for `CCCCCn1c(=N)n(CC(O)COc2cccc(C)c2)c2ccccc21.Cl` (stereo not drawn), -6.708%. The result for `O=c1c2c([nH]c3ccccc13)CCCC2` reads 14.89%. Take `CCCCOc1ccc(C(=O)Nc2cc(C)on2)cc1`: the Inhibition is -8.82%.

Take `Br.CCN(CC)S(=O)(=O)c1ccc(-c2csc(Nc3ccc(C)c(C)c3)n2)cc1`: the Inhibition is -28.35%. For `CCN1CCN(c2c(C(=O)c3ccccc3)cnc3cc(OC)c(OC)cc23)CC1`, the Inhibition was -1.231%. For the compound `Cc1c(C)n(CC(O)CNC2CCCCC2C)c2ccccc12` (stereo not drawn), the Inhibition was -20.79%.

In the case of `Cc1ccc(S(=O)(=O)c2c(COC(=O)c3cccc(C)c3)c(-c3ccccc3)nn2C)cc1`, the Inhibition is -24.68%. The figure for `CCCCN(CCCC)S(=O)(=O)c1ccc(NC(=O)c2ccco2)cc1` is -29.51%.
